A compilation of properties of binary mixtures (doi:10.1016/j.fluid.2022.113414)

Experiment: xn = mol fraction of the nth substance listed
Conditions: 101.3 kPa

CC(=O)[O-].CN1CCCN2CCC[NH+]=C12 + O
viscosity [mPa·s]
Conditions | x1 = 0.103 | x1 = 0.206 | x1 = 0.301 | x1 = 0.405 | x1 = 0.494 | x1 = 0.604
278.2 K | 46 | 329 | 945 | – | 2689 | 3358
283.2 K | – | – | 554 | 1023.1 | – | 1825.2
288.2 K | 24.1 | 131.4 | 340 | 609 | 873 | 1046.1
293.2 K | 18.1 | 87.9 | 217.7 | – | 533 | 629
298.2 K | 13.9 | 61.2 | – | 244.9 | – | 396
303.2 K | 10.9 | 43.9 | – | 164.9 | 224.5 | –
308.2 K | 8.77 | – | – | 114.8 | 153.9 | 176.1
313.2 K | 7.19 | 24.72 | – | 82.4 | – | 123.6
318.2 K | 5.94 | 19.23 | – | 60.6 | – | 89.4
323.2 K | 4.99 | 15.23 | 30 | 45.8 | 59.3 | –
328.2 K | 4.24 | 12.3 | 23.57 | 35.39 | 45.37 | 50.43
333.2 K | 3.65 | – | 18.81 | 27.89 | 35.43 | 39.17
338.2 K | 3.15 | 8.44 | 15.29 | 22.37 | – | 31.03
343.2 K | – | 7.12 | 12.65 | 18.24 | 22.81 | 25.01
348.2 K | 2.45 | 6.08 | 10.59 | 15.11 | 18.74 | 20.47
353.2 K | 2.19 | 5.25 | – | 12.66 | 15.61 | 16.99
358.2 K | – | – | 7.69 | 10.74 | 13.17 | –
363.2 K | 1.78 | 4 | 6.66 | 9.21 | 11.24 | –
368.2 K | – | 3.54 | 5.83 | 7.98 | 9.68 | –
373.2 K | – | 3.17 | – | 6.97 | 8.42 | –
